Results as given in paper PMC9516332 (Frontiers in Oncology, 2022).

Tests used:
Test in all cases: Kinase panel profiling at 1 µmol/L (MSA or IMAP), percentage inhibition
Format in all cases: biochemical
[1] = target: T1, panel of 255 wild-type kinases (Homo sapiens, UniProt Q96PN8); conditions: kinase TSSK3; 1 µmol/L single concentration; read-out: %-inhibition at 1 µmol/L, TSSK3
T1 sequence (Q96PN8 1-268): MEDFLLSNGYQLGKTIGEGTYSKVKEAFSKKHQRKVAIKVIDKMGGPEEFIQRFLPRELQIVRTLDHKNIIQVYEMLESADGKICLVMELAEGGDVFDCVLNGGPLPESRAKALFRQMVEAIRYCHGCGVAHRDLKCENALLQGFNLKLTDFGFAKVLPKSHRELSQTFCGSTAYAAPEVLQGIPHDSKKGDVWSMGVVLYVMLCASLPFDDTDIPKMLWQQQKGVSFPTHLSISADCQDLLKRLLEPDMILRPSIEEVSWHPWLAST

[2] = target: panel of 255 wild-type kinases (Homo sapiens, UniProt Q9UPE1); conditions: MSSK1; 1 µmol/L single concentration; read-out: %-inhibition, MSSK1
[3] = target: panel of 255 wild-type kinases (Homo sapiens, UniProt Q06187); conditions: BTK kinase assay; 1 µmol/L single concentration; read-out: %-inhibition BTK
[4] = target: panel of 255 wild-type kinases (Homo sapiens, UniProt Q00526); conditions: CDK3/CycE1 kinase assay; 1 µmol/L single concentration; read-out: %-inhibition CDK3/CycE1
[5] = target: panel of 255 wild-type kinases (Homo sapiens, UniProt P29376); conditions: kinase LTK; 1 µmol/L single concentration; read-out: %-inhibition at 1 µmol/L, LTK
[6] = target: panel of 255 wild-type kinases (Homo sapiens, UniProt Q15303); conditions: kinase HER4; 1 µmol/L single concentration; read-out: %-inhibition at 1 µmol/L, HER4
[7] = target: panel of 255 wild-type kinases (Homo sapiens, UniProt Q9Y6M4); conditions: kinase CK1γ3; 1 µmol/L single concentration; read-out: %-inhibition at 1 µmol/L, CK1γ3
[8] = target: T2, panel of 255 wild-type kinases (Homo sapiens, UniProt O60285); conditions: NuaK1; 1 µmol/L single concentration; read-out: %-inhibition, NuaK1
T2 sequence (O60285 1-661): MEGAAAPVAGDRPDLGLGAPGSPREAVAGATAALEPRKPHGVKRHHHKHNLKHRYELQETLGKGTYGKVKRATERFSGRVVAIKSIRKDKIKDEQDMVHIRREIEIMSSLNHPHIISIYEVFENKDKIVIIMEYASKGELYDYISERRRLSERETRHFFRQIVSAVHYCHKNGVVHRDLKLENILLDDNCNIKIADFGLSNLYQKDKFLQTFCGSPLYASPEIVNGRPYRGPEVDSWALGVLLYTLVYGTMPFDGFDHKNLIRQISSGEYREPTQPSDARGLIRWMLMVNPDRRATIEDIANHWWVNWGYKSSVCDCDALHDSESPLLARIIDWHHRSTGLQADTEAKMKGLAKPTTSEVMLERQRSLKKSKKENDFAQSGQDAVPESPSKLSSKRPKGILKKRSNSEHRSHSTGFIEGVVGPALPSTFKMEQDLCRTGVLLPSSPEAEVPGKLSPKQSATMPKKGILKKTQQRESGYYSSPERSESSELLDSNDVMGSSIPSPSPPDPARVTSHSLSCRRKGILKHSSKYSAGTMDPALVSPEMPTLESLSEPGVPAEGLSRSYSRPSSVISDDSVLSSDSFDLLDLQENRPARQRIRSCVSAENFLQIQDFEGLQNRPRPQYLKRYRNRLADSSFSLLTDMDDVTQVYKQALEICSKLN

[9] = target: panel of 255 wild-type kinases (Homo sapiens, UniProt Q9UKE5); conditions: kinase TNIK; 1 µmol/L single concentration; read-out: %-inhibition at 1 µmol/L, TNIK
[10] = target: panel of 255 wild-type kinases (Homo sapiens, UniProt Q13557); conditions: CaMK2δ kinase assay; 1 µmol/L single concentration; read-out: %-inhibition CaMK2δ
[11] = target: panel of 255 wild-type kinases (Homo sapiens, UniProt Q9P1W9); conditions: kinase PIM2; 1 µmol/L single concentration; read-out: %-inhibition at 1 µmol/L, PIM2
[12] = target: T3, panel of 255 wild-type kinases (Homo sapiens, UniProt O15530); conditions: kinase PDK1; 1 µmol/L single concentration; read-out: %-inhibition at 1 µmol/L, PDK1
T3 sequence (O15530 1-556): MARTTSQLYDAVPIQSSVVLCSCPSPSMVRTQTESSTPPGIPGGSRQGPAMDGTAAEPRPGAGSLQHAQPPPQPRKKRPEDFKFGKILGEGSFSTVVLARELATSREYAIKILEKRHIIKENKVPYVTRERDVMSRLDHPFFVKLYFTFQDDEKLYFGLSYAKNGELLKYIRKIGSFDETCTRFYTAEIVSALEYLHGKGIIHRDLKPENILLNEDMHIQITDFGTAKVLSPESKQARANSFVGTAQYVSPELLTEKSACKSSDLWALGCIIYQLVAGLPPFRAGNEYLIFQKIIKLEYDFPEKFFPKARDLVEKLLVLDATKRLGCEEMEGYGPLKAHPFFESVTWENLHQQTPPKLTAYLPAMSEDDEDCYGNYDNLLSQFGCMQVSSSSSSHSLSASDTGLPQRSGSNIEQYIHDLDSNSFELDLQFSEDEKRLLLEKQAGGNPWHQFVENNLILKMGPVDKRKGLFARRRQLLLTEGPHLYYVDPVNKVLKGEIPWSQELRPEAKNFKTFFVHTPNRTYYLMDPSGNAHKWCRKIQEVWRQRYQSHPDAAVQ

[13] = target: panel of 255 wild-type kinases (Homo sapiens, UniProt P22607); conditions: kinase FGFR3; 1 µmol/L single concentration; read-out: %-inhibition at 1 µmol/L, FGFR3

| Compound | inhibition at 1 µM [1] | inhibition at 1 µM [2] | inhibition at 1 µM [3] | inhibition at 1 µM [4] | inhibition at 1 µM [5] | inhibition at 1 µM [6] | inhibition at 1 µM [7] | inhibition at 1 µM [8] | inhibition at 1 µM [9] | inhibition at 1 µM [10] | inhibition at 1 µM [11] | inhibition at 1 µM [12] | inhibition at 1 µM [13] |
| --- | --- | --- | --- | --- | --- | --- | --- | --- | --- | --- | --- | --- | --- |
| Cn1cnc2c(F)c(Nc3ccc(Br)cc3F)c(C(=O)NOCCO)cc21 [binimetinib] | 2.62% | -4.37% | -3.75% | -4.57% | 0.411% | 11% | 2.67% | -4.32% | 0.137% | -4% | -6.4% | 0.386% | 1.4% |
| Cc1nc(NC(=O)N2CCC[C@H]2C(N)=O)sc1-c1ccnc(C(C)(C)C(F)(F)F)c1 [alpelisib] | 0.673% | -3.38% | -0.621% | -4% | -2.85% | 2% | -2% | 9% | 4.6% | 0.814% | -6.4% | -0.422% | 3.39% |
| CCN1C(=O)N(c2c(F)c(OC)cc(OC)c2F)Cc2cnc3[nH]c(CN4CCOCC4)cc3c21 [pemigatinib] | -0.468% | -7% | -5.29% | 11% | 1.66% | 5% | -1.18% | -2.15% | 4% | 11% | -6% | 0.293% | 100% |
| Cn1cc(-c2cc3c(N4CCN(c5ncc([C@@](C)(N)c6ccc(F)cc6)cn5)CC4)ncnn3c2)cn1 [avapritinib] | -4% | 0.0476% | 13% | -2.7% | 51% | 25% | 10% | 85% | 30% | -2.56% | -2.22% | 6.57% | 41% |

Second part, the molecule after the results:

| inhibition at 1 µM [1] | inhibition at 1 µM [2] | inhibition at 1 µM [3] | inhibition at 1 µM [4] | inhibition at 1 µM [5] | inhibition at 1 µM [6] | inhibition at 1 µM [7] | inhibition at 1 µM [8] | inhibition at 1 µM [9] | inhibition at 1 µM [10] | inhibition at 1 µM [11] | inhibition at 1 µM [12] | inhibition at 1 µM [13] | Compound |
| --- | --- | --- | --- | --- | --- | --- | --- | --- | --- | --- | --- | --- | --- |
| -4% | 2.44% | 17% | 3.49% | -3% | 7.42% | 12% | 10% | 6% | 1.36% | -6% | 7% | 95% | COc1ccc(CN2C3CC2CN(c2ccc(-c4cc(OCC(C)(C)O)cn5ncc(C#N)c45)cn2)C3)cn1 [selpercatinib] |
| -0.029% | 1.14% | 21% | -3.48% | 49% | 94% | 11% | 9% | 4% | -3% | -3.72% | 3% | 2.63% | Cc1cc(Nc2ncnc3ccc(NC4=NC(C)(C)CO4)cc23)ccc1Oc1ccn2ncnc2c1 [tucatinib] |
| -3% | -5.32% | 52% | -9% | 53% | 33% | -1% | 6% | 2.3% | -3% | -3.45% | 2.11% | 2.76% | Cn1cnc2c(F)c(Nc3ccc(Br)cc3Cl)c(C(=O)NOCCO)cc21 [selumetinib] |
| 3% | 0.445% | 43% | -1.66% | 21% | 103% | -23% | 11% | 27% | 9% | -3% | -7% | 26% | COc1cc2ncnc(Nc3ccc(F)c(Cl)c3)c2cc1NC(=O)/C=C/CN1CCCCC1 [dacomitinib] |
| -5% | -6% | 53% | 42% | 55% | 53% | 0.449% | 91% | 6.58% | -1% | -4% | 9% | 96% | CO[C@]1(C(=O)N[C@@H](C)c2ccc(-n3cc(F)cn3)nc2)CC[C@H](c2nc(C)cc(Nc3cc(C)[nH]n3)n2)CC1 [pralsetinib] |
